Test results from patent publication US11116817B2, “Antimicrobial agents and compositions comprising the same” (THE CURATORS OF THE UNIVERSITY OF MISSOURI, priority 2017, dated 2021).
Positions of bridges follow the written chain, without caps; N, C: chain ends. Non-standard residues stand in square brackets, D forms with d. No end group written: not given here. Abu = CC[C@H](N)C(=O)O

How the values were obtained:
mouse red blood cells = type: cell-based
Experimental: The Hemolytic Assay includes the following procedures. Briefly, mouse red blood cells (RBCs, Innovative research, Novi, Mich.) were washed three times with phosphate-buffered saline (PBS, pH 7.4), centrifuged at 1000×g for 10 minutes, and re-suspended in PBS to 10% (v/v). The RBCs were treated with CAMPs (SEQ ID NOs: 1, 2, 3, and 4) at various concentrations ranging from 4 to 512 μg/ml (2-fold serial dilutions) at 37° C. for 1 hours. PBS and 0.2% Triton X-100 were used as negative and positive controls, respectively. The supernatant was transferred to a 96-well flat-bottomed polystyrene plate (Thermo Fisher Scientific), and the amount of hemoglobin released into the supernatant was determined by measuring the absorbance with a spectrophotometer at 540 nm. Hemolytic activity was expressed as the percentage of hemolysis and calculated using the following equation: hemolysis (%)=(As−A0)/(A100−A0)×100, where As is the absorbance of the sample, A100 is the absorbance of completely lysed RBCs in 0.2% Triton X-100, and A0 is the absorbance in the complete absence of hemolysis (PBS treatment). The assay was performed in triplicate. Therapeutic index (T.I.) was calculated according to a previously published formula: T.I.=MHC/MICGM. MHC was the minimum hemolytic concentration that caused 5% hemolysis of mouse RBCs. The MICGM was the minimum inhibitory concentration of the peptide concentrations against bacterial growth after the geometric mean was calculated. MICG− was the MICGM for Gram-negative bacteria; MICG+ was the MICGM for Gram-positive bacteria.

CHO-K1 cells = assay: Cell cytotoxicity assay (MTT); type: cell-based, hamster
Experimental: The Cell Cytotoxicity Assay includes the following procedures. Mouse immature dendritic cell line, JAWSII (ATCC CRL-11904™), was cultured in Alpha minimum essential medium with ribonucleosides, deoxyribonucleosides, 4 mM L-glutamine, 1 mM sodium pyruvate, and 5 ng/ml murine Granulocyte macrophage colony-stimulating factor (GM-CSF) then supplemented with 20% FBS, 100 U/ml penicillin, and 100 μg/ml streptomycin at 37° C. in humidified air with 5% CO2. CCR-2 transfected CHO-K1 cells were cultured in RPMI-1640 supplemented with 10% FBS, 2 mM L-glutamine, 100 units/ml penicillin and streptomycin, and 500 μg/ml G418 at 37° C. in humidified air with 5% CO2. The cytotoxicity of CAMPs (SEQ ID NOs: 1, 2, 3, and 4) to JASWII and CHO-K1 cells was determined using MTT (3-(4,5-dimethylthiazol-2-yl)-2,5-diphenyltetrazolium bromide, Thermo Fisher Scientific) cell proliferation assay. Cells (5×10^3 cells/well) in 96-well microtiter plates were treated with peptides at 64, 128, 256, and 512 μg/ml for 4, 12, 24, and 48 hours at 37° C. After treatment, 20 μl of 12 mM MTT solution was added to each well and the plate was incubated for 4 hours. The medium in each well was replaced with 100 μl of dimethyl sulfoxide (DMSO, Sigma-Aldrich) to dissolve MTT crystals. The plates were read using a spectrophotometer at 540 nm. The viability of treated cells was expressed as the percentage of viability relative to the untreated control. The experiment was performed in triplicate.
Chicken macrophage cell lines MQ-NCSU and HD11 were maintained in RPMI-1640 media supplemented with 10% fetal bovine serum (FBS), 2% chicken serum, 100 U/ml penicillin and 100 μg/ml streptomycin (Sigma-Aldrich) at 37° C. in humidified air with 5% CO2. CHO-K1 cells were cultured in the same media without 2% chicken serum. For CCR2-transfected CHO-K1 cells, medium was supplemented with 500 μg/ml G418 was added (Sigma-Aldrich). Murine immature dendritic cell line JAWSII (ATCC CRL-11904™) was cultured in Alpha minimum essential medium containing 4 mM L-glutamine, 1 mM sodium pyruvate, 5 ng/ml murine Granulocyte macrophage colony-stimulating factor (GM-CSF), 20% FBS, 100 U/ml penicillin and 100 μg/ml streptomycin at 37° C. in humidified air with 5% CO2. The cell cytotoxicity was determined using the MTT (3-(4,5-dimethylthiazol-2-yl)-2,5-diphenyltetrazolium bromide cell proliferation assay according to the manufacturer's instruction (Thermo Fisher Scientific). Briefly, cells (5×10^3 cells/well) were seeded in 96-well tissue culture plates, incubated overnight and treated with the analogues at concentrations of 4, 16, 64 and 256 μg/ml for 4, 12, 24 and 48 hours at 37° C. After treatment, […] 12 mM MTT solution was added to each well. The plate was incubated for 4 hours and read at 540 nm. Viability was expressed as percentage of viable cells relative to the untreated control. The experiments were performed in triplicate.

JAWSII cells = assay: Chemotaxis assay (48-well microchemotaxis chamber); type: cell-based, mouse; conditions: for chemotactic index (C.I.): peptide 64 μg/ml
Experimental: (§1) Migration of JAWSII and CCR-2 transfected CHO-K1 cells in response to CAMPs (SEQ ID NOs: 1, 2, 3, and 4) was determined using a 48-well microchemotaxis chamber technique as previously described. Chemotaxis buffer (Minimum Essential Medium containing 0.1% BSA, 100 U/ml penicillin, and 100 μg/ml streptomycin) and bacterial peptide N-Formyl-methionyl-leucyl-phenylalanine (fMLF, Sigma-Aldrich) were included as negative and positive controls, respectively. The results were presented as chemotactic index (C.I.)=number of migrated cells induced by CAMPs (SEQ ID NOs: 1, 2, 3, and 4)/number of migrated cells induced by chemotactic buffer. The assay was repeated five times.
as §1, with “CCR2-CHO-K1” for “CCR-2 transfected CHO-K1”, “the analogues” for “CAMPs (SEQ ID NOs: 1, 2, 3, and 4)”, “For JAWSII cells, chemotaxis” for “Chemotaxis”, “(C.I.). C.I.=number” for “(C.I.)=number”, “the analogues/number” for “CAMPs (SEQ ID NOs: 1, 2, 3, and 4)/number”

[1] = tested on: CCR-2 transfected CHO-K1 cells; assay: Chemotaxis assay (48-well microchemotaxis chamber); type: cell-based, hamster
Experimental: as §1
as §1, with “CCR2-CHO-K1” for “CCR-2 transfected CHO-K1”, “the analogues” for “CAMPs (SEQ ID NOs: 1, 2, 3, and 4)”, “For JAWSII cells, chemotaxis” for “Chemotaxis”, “(C.I.). C.I.=number” for “(C.I.)=number”, “the analogues/number” for “CAMPs (SEQ ID NOs: 1, 2, 3, and 4)/number”

[2] = tested on: E. coli, S. Typhimurium, P. aeruginosa and S. aureus; assay: Antimicrobial activity assay (colony counting), Example Two, statements over all four bacteria; type: cell-based; conditions: for impact of NaCl on the killing activity: NaCl 5 to 150 mM; for killing activity compared with parent peptide: 2 to 128 μg/ml, 37° C., 2 hours
Experimental: (§2) Escherichia coli (ATCC 25922), Pseudomonas aeruginosa (ATCC 27853), Salmonella enteric serovar Typhimurium (ATCC 14028) and Staphylococcus aureus (ATCC 29213) were used to assess the antimicrobial activity of AvBD analogues (SEQ ID NOs: 5, 6, 7, 8, 9, 10, 11, 12, and 13). All bacterial strains were grown on Luria-Bertani (LB) agar plates or Trypticase Soy Agar with 5% Sheep Blood (TSA, Thermo Fisher Scientific) plates at 37° C. Antimicrobial activity was determined by a colony counting assay. In brief, bacteria were suspended in 100-fold diluted Mueller Hinton broth with 5 mM NaCl (minimal growth medium) to obtain a final bacterial concentration of 2×10^5 CFU/ml. Twenty-five microliters of bacterial suspension and 25 μl of AvBD analogue (SEQ ID NOs: 5, 6, 7, 8, 9, 10, 11, 12, and 13) solution were mixed in the wells of a 96-well polypropylene microtiter plate (Nunc™, Thermo Fisher Scientific). The final peptide concentrations were 2, 4, 8, 16, 32, 64 and 128 μg/ml. The minimal growth medium without AvBD peptide (SEQ ID NO: 5, 6, 7, 8, 9, 10, 11, 12, and 13) was included as a negative control. The bacterial-peptide mixtures were incubated at 37° C. for 2 hours, 10-fold serially diluted and plated on LB agar plates. The numbers of bacterial colonies were enumerated after 16 hours of incubation at 37° C. Antimicrobial activity was expressed as percent of killing using the following formula: (CPUcontrol−CFUtreated)/CFUcontrol×100%. To assess the resistance of AvBD analogues (SEQ ID NOs: 5, 6, 7, 8, 9, 10, 11, 12, and 13) to sodium chloride (NaCl), antimicrobial assays were carried out in the presence of 5 mM, 50 mM, 100 mM or 150 mM NaCl. All assays were performed in triplicate.

[3] = tested on: P. aeruginosa (ATCC 27853); type: cell-based; conditions: low salt condition (5 mM NaCl)
Experimental: (§3) The minimum inhibitory concentrations (MIC) of AvBDs (SEQ ID NOs: 5, 6, 7, 8, 9, 10, 11, 12, and 13) were determined under low salt and standard conditions according to the guidelines of the Clinical and Laboratory Standards Institute (CLSI). […] An equal volume […] of bacterial suspension was added to each well of the plate. The final bacterial concentration in the wells was 5×10^5 CFU/ml. […] To complement MIC-1s assays, the minimum bactericidal concentrations (MBC) were evaluated by sub-culturing the contents of the first two clear wells obtained in the MIC-1s assay onto LB agar plates. All assays were conducted in triplicate. The lowest peptide concentration inhibiting about, at least, or more than 99% of bacterial growth was defined as MBC-1s. The analogues were regarded as bactericidal when the MBC was determined to be no more than four times the MIC.

S. aureus (ATCC 29213) = type: cell-based; conditions: standard conditions, CLSI guidelines
Experimental: as §3

[4] = tested on: Salmonella enteric serovar Typhimurium (ATCC 14028); assay: Antimicrobial activity assay (colony counting), Example Two; type: cell-based, S. Typhimurium; conditions: 2 to 128 μg/ml, 37° C., 2 hours
Experimental: as §2, with “The numbers of bacterial colonies were enumerated after 16 hours of incubation at 37° C.” left out, “To assess the resistance of AvBD analogues (SEQ ID NOs: 5, 6, 7, 8, 9, 10, 11, 12, and 13) to sodium chloride (NaCl), antimicrobial assays were carried out in the presence of 5 mM, 50 mM, 100 mM or 150 mM NaCl. All assays were performed in triplicate.” left out

[5] = 64, 128, 256, and 512 μg/ml for 4 to 48 hours

| Substance | T.I. of G+ (therapeutic index, MHC/MICGM) (mouse red blood cells) | T.I. of G− (therapeutic index, MHC/MICGM) (mouse red blood cells) | chemotactic activity [1] | impact of NaCl on the killing activity [2] | MBS-Is [3] [µg/mL] | further results |
| --- | --- | --- | --- | --- | --- | --- |
| Ac-PIHRRIPPRWPRLKRRW-NH2 [CAMP-t2, PIHRRIPPRWPRLKRRW] | >13.45 ± 4.48 | >5.45 ± 2.54 | – | – | – | effect on cell viability (CHO-K1 cells; [5]): did not significantly affect cell viability |
| GPDS[Abu]NHDRGL[Abu]RVGNCNPGEYLAKY[Abu]FEPVIL[Abu]CKPLSPTPTKT (disulfide 17-35) [AvBD-12A5] | – | – | did not appear to exhibit chemotactic activity | some impact on killing activity due to salt | >256 | chemotactic activity (JAWSII cells): did not appear to exhibit chemotactic activity |
| GPDSCNHDRGLCRVGNCNPGEYLAKYCFEPVILCCKPLSPTPTKT (disulfide 5-34, 12-27, 17-35) [AvBD-12, reference compound] | – | – | – | – | >256 | chemotactic index (C.I.) (JAWSII cells): 6.62; MIC (S. aureus (ATCC 29213)): >256^ μg/ml |
| GPRSSNHKRGLSRVGNSNPGKYLAKYAFRPVILAAKPLSPTPTKT [AvBD-12A2] | – | – | mild or little chemotactic activity | less adverse impact | 32 | chemotactic index (C.I.) (JAWSII cells): 2.37; killing activity compared with parent peptide [2]: more effective than the parent peptide AvBD-12 |
| Ac-RRRWRKRRWWW-NH2 [CAMP-B, RRRWRKRRWWW] | > 12.36±4.18 | > 10.90±4.0 | – | – | – | effect on cell viability (CHO-K1 cells; [5]): did not significantly affect cell viability |
| Ac-LRRLKPLIRPWLRPLRRWWW-NH2 [CAMP-A] | 6.54±2.01 | 8.72±2.41 | – | – | – | effect on cell viability (CHO-K1 cells; concentration at about 128 μg/ml or greater): somewhat decreased |
| GPRSANHKRGLARVGNANPGKYLAKYSFRPVILSSKPLSPTPTKT [AvBD-12A3] | – | – | – | – | – | effect on cell viability (CHO-K1 cells; 4, 16, 64, 256 μg/ml for 4, 12, 24, and 48 hour): did not appear to have any effect on cell viability |
| GPDS[Abu]NHDRGL[Abu]RVGN[Abu]NPGEYLAKY[Abu]FEPVIL[Abu][Abu]KPLSPTPTKT [AvBD-12A6] | – | – | did not appear to exhibit chemotactic activity | some impact on killing activity due to salt | >256 | chemotactic activity (JAWSII cells): did not appear to exhibit chemotactic activity |
| GPHSANHVRGLARVGNANPGLYLAKYAFIPVILAAKPLSPTPTKT [AvBD-12A1] | – | – | mild or little chemotactic activity | some impact from NaCl | 256 | killing activity compared with parent peptide [2]: more effective than the parent peptide AvBD-12 |
| GPDS[Abu]NHDRGLCRVGNCNPGEYLAKYCFEPVIL[Abu]CKPLSPTPTKT (disulfide 12-27, 17-35) [AvBD-12A4] | – | – | – | some impact on killing activity due to salt | >256 | killing activity compared with AvBD-12 [4]: somewhat reduced |
| Ac-RKFLRRRGEVAHFSQKSLGLYCWWW-NH2 [CAMP-t1] | >3.27 ± 2.41 | >4.36 ± 1.21 | – | – | – | effect on cell viability (CHO-K1 cells; [5]): did not significantly affect cell viability |
